In patent US10829520B2, “Beta-hairpin peptidomimetics” (POLYPHOR AG, priority 2015, dated 2020):
Where a SMILES comes first, the peptide text is derived from it. Bridges are numbered along the chain shown (N, C = ends). Roman numbers before positions name the chains, in order. [ ]: non-standard residue; d: D form. The star is where a group is joined. NαAmidinoTrp = N=C(N)N[C@@H](Cc1c[nH]c2ccccc12)C(=O)*; Pen = CC(C)(S)[C@H](N)C(=O)O; Tle = CC(C)(C)[C@H](N)C(=O)O; dDab = NCC[C@@H](N)C(=O)O; hSer = N[C@@H](CCO)C(=O)O; Nle = CCCC[C@H](N)C(=O)O; Orn = NCCC[C@H](N)C(=O)O; Dab = NCC[C@H](N)C(=O)O; dAze = O=C(O)[C@H]1CCN1; Dap = NC[C@H](N)C(=O)O; Sar = CNCC(=O)O

Legend:
Format in all cases: cell-based
[1] = test system: human red blood cells (hRBC); assay: Hemolysis of human red blood cells; conditions: red cells of human, 1 h
Procedure, shortened: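 Fresh human red blood cells are washed in PBS, then shaken with peptide (100 μg/mL) at 37° C. for 1 h, final erythrocyte density about 0.9×10^9 cells/mL. After centrifugation, diluted supernatants are read at 540 nm against buffer (0%) and Triton X-100 (100%) lysis controls.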

[2] = test system: Klebsiella pneumoniae SSI #3010; conditions: SSI #3010
Procedure, shortened: (§1)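 MIC in μg/mL read as absence of visible growth after 18-20 h incubation at 35° C. Bacteria at about 10^6 CFU/mL in MH-II (cation-adjusted) broth plus 0.002% P-80 were exposed to two-fold peptide dilutions per standard CLSI microdilution.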

[3] = test system: Escherichia coli 926415; conditions: 926415
[4] = test system: Klebsiella pneumoniae 968733; conditions: 968733
[5] = test system: Acinetobacter baumannii DSM 30008; conditions: DSM 30008
Procedure, shortened: as §1

[6] = test system: Escherichia coli ATCC 25922; conditions: ATCC 25922
Procedure, shortened: as §1

[7] = test system: Acinetobacter baumannii 872842; conditions: 872842
[8] = test system: Pseudomonas aeruginosa ATCC 27853; conditions: ATCC 27853
Procedure, shortened: as §1

| SMILES | Hemolysis at 100 μg/mL [1]; 100 [%] | Klebsiella pneumoniae SSI #3010 MIC [2] [µg/mL] | Escherichia coli 926415 MIC [3] [µg/mL] | Klebsiella pneumoniae 968733 MIC [4] [µg/mL] | Acinetobacter baumannii DSM 30008 MIC [5] [µg/mL] | Escherichia coli ATCC 25922 MIC [6] [µg/mL] | Acinetobacter baumannii 872842 MIC [7] [µg/mL] | Pseudomonas aeruginosa ATCC 27853 MIC [8] [µg/mL] | Hemolysis at 100 μg/mL ([1]; 100 μg/mL) [%] |
| --- | --- | --- | --- | --- | --- | --- | --- | --- | --- |
| CC(C)C[C@@H]1NC(=O)[C@@H](CC(C)C)NC(=O)[C@H](CCN)NC(=O)[C@@H](NC(=O)[C@H](CCN)NC(=O)[C@@H](NC(=O)[C@H](CCN)NC(=O)CC[C@@H]2NC(=O)[C@H](CCN)NC(=O)[C@H](Cc3ccc(O)cc3)NC(=O)[C@H]([C@@H](C)O)NC(=O)[C@H](C(C)C)NC(=O)[C@@H]3CCCN3C(=O)[C@@H](C)NC(=O)[C@H](CO)NC(=O)[C@H](C)NC(=O)[C@H](C(C)(C)C)NC(=O)[C@H](CCO)NC(=O)[C@H](Cc3c[nH]c4ccccc34)NC(=O)[C@H](CCO)NC(=O)[C@@H](CCN)NC2=O)[C@@H](C)O)CCNC(=O)[C@H]([C@@H](C)O)NC(=O)[C@H](CCN)NC(=O)[C@H](CCN)NC1=O [Ex. 103] (I: cyclo([dDab][hSer]W[hSer][Tle]AS[dA]PVTY[Dab]E) / II: [Dab]T[Dab][Dab][Dab][dL]L[Dab][Dab]T; amide I:14-II:N; lactam II:4-II:C) | 1 | 0.0625 | 0.125 | 0.0625 | 0.0625 | 0.625 | 0.25 | 0.125 | – |
| CNCC(=O)N[C@@H](CC(C)C)C(=O)N[C@H]1CSSC[C@@H](C(=O)N(C)CC(=O)N[C@@H](CCN)C(=O)N[C@H](C(=O)N[C@@H](CCN)C(=O)N[C@H]2CCNC(=O)[C@H]([C@@H](C)O)NC(=O)[C@H](CCN)NC(=O)[C@H](CCN)NC(=O)[C@H](CC(C)C)NC(=O)[C@@H](CC(C)C)NC(=O)[C@H](CCN)NC2=O)[C@@H](C)O)NC(=O)[C@H](Cc2ccc(O)cc2)NC(=O)[C@H](CO)NC(=O)[C@H](CC(C)C)NC(=O)[C@@H]2CCCN2C(=O)[C@H]2CCCN2C(=O)[C@H](Cc2ccc(O)cc2)NC(=O)[C@H](C)NC(=O)[C@H](C(C)C)NC1=O [Ex. 186] (H-[Sar]LCVAY[dP]PLSYC[Sar][Dab]T[Dab][Dab][Dab][dL]L[Dab][Dab]T; disulfide 3-12; lactam 17-C) | – | 0.125 | 0.25 | 0.5 | 0.1251 | 0.125 | 0.0625 | 0.25 | <1 |
| CC(C)C[C@@H]1NC(=O)[C@@H](CC(C)C)NC(=O)[C@H](CCN)NC(=O)[C@@H](NC(=O)[C@H](CCN)NC(=O)[C@@H](NC(=O)[C@H](CCN)NC(=O)CNC(=O)[C@H]2NC(=O)[C@H](Cc3ccc(O)cc3)NC(=O)[C@H](CO)NC(=O)[C@H](CC(C)C)NC(=O)[C@@H]3CCCN3C(=O)[C@H]3CCCN3C(=O)[C@H](CO)NC(=O)[C@H](C)NC(=O)[C@H](C(C)C)NC(=O)[C@@H](NC(=O)[C@H](Cc3c[nH]c4ccccc34)NC(=N)N)CSSC2(C)C)[C@@H](C)O)CCNC(=O)[C@H]([C@@H](C)O)NC(=O)[C@H](CCN)NC(=O)[C@H](CCN)NC1=O [Ex. 173] (NαAmidinoTrp-CVAS[dP]PLSY[Pen]G[Dab]T[Dab][Dab][Dab][dL]L[Dab][Dab]T; disulfide 1-10; lactam 15-C) | – | 0.125 | 0.5 | 1 | 0.125 | 0.125 | 0.25 | 0.5 | 1 |
| CCCC[C@@H]1NC(=O)[C@@H]2CCCN2C(=O)[C@H]2CCCN2C(=O)[C@H](CO)NC(=O)[C@H](C)NC(=O)[C@H](C(C)(C)C)NC(=O)[C@H](CCN)NC(=O)[C@H](Cc2c[nH]c3ccccc23)NC(=O)[C@H](CCC(=O)N[C@@H](CCN)C(=O)N[C@H](C(=O)N[C@@H](CCN)C(=O)N[C@H]2CCNC(=O)[C@H]([C@@H](C)O)NC(=O)[C@H](CCN)NC(=O)[C@H](CCN)NC(=O)[C@H](CC(C)C)NC(=O)[C@@H](Cc3ccccc3)NC(=O)[C@H](CCN)NC2=O)[C@@H](C)O)NC(=O)[C@@H](CCN)NC(=O)[C@H](CCCN)NC(=O)[C@H](CCN)NC(=O)[C@H](Cc2ccc(O)cc2)NC(=O)[C@H](CO)NC1=O [Ex. 10] (I: cyclo([Nle]SY[Dab][Orn][dDab]EW[Dab][Tle]AS[dP]P) / II: [Dab]T[Dab][Dab][Dab][dF]L[Dab][Dab]T; amide I:7-II:N; lactam II:4-II:C) | 1 | 0.25 | 0.5 | 2 | 1 | 0.125 | 1 | 0.5 | – |
| CC(C)C[C@@H]1NC(=O)[C@@H](CC(C)C)NC(=O)[C@H](CCN)NC(=O)[C@@H](NC(=O)[C@H](CCN)NC(=O)[C@H](CN)NC(=O)[C@@H]2CSSC[C@H](NC(=O)[C@@H](N)Cc3c[nH]c4ccccc34)C(=O)N[C@@H](C(C)(C)C)C(=O)N[C@@H](C)C(=O)N[C@@H]([C@@H](C)O)C(=O)N3CC[C@@H]3C(=O)N3CCC[C@H]3C(=O)N[C@@H](C(C)C)C(=O)N[C@@H](CO)C(=O)N[C@@H](Cc3ccc(O)cc3)C(=O)N2)CCNC(=O)[C@H]([C@@H](C)O)NC(=O)[C@H](CCN)NC(=O)[C@H](CCN)NC1=O [Ex. 189] (H-WC[Tle]AT[dAze]PVSYC[Dap][Dab][Dab][Dab][dL]L[Dab][Dab]T; disulfide 2-11; lactam 14-C) | – | 0.5 | 0.5 | 1 | 0.5 | 0.25 | 0.125 | 2 | 1 |
| CCCC[C@@H]1NC(=O)[C@@H]2CCCN2C(=O)[C@H]2CCCN2C(=O)[C@H](CO)NC(=O)[C@H](C)NC(=O)[C@H](C(C)(C)C)NC(=O)[C@@H](NC(=O)[C@@H](N)Cc2c[nH]c3ccccc23)CSSC[C@@H](C(=O)N[C@@H](CCCN)C(=O)N[C@@H](CCN)C(=O)N[C@H]2CCNC(=O)[C@H]([C@@H](C)O)NC(=O)[C@H](CCN)NC(=O)[C@H](CCN)NC(=O)[C@H](CC(C)C)NC(=O)[C@@H](Cc3ccccc3)NC(=O)[C@H](CCN)NC2=O)NC(=O)[C@H](Cc2ccc(O)cc2)NC(=O)[C@H](CO)NC1=O [Ex. 45] (H-WC[Tle]AS[dP]P[Nle]SYC[Orn][Dab][Dab][Dab][dF]L[Dab][Dab]T; disulfide 2-11; lactam 14-C) | – | 0.125 | 0.25 | 0.25 | 0.125 | 0.125 | 0.25 | 0.5 | 1 |
